Entries after “also recorded” stand apart in the source; their conditions may differ.

The subject of test [1] is Plasmodium falciparum 3D7 parasites. Details: method as in PMID 23798988. Conditions: in vitro; cited from earlier work.
Test [2] deals with PfFNT. Conditions: cited from earlier work; for IC50: PfFNT expressed in Saccharomyces cerevisiae yeast.
Test [3] concerns PfFNT G107S. Details: method as in PMID 23798988. Conditions: PfFNT G107S point mutation; cited from earlier work.
Test [4] concerns resistant parasites that carried a single PfFNT G107S point mutation. Details: method as in PMID 23798988. Conditions: cited from earlier work.
Test [5] has as its target T1, PfFNT-GFP (Plasmodium falciparum, UniProt O77389).
T1 construct: The DNA of full-length PfFNT from Plasmodium falciparum 3D7 was cloned as a C-terminal GFP fusion; expressed in transfected cells; intact cells for imaging, LMNG-solubilized membranes or lysates for FCCS
Put plainly: FCCS loss of signal screening competition assay. Type of test: binding. On the procedure:
With a loss of signal screening assay using the GFP fusion of PfFNT wildtype and BH296-DY647 as the interaction pair, we set out to test the FCCS approach on a selection of 26 compounds that were validated before using functional lactate transport assays in yeast. In more detail, HEK cell lysates were adjusted to a PfFNT-GFP concentration of 4 nM and mixed with fluorescence-labeled BH296-DY647 at a final concentration of 80 nM, approximating the previously determined KD-value of this interaction. A total of 20 µL of the mix was then dispensed into the wells of a glass-bottom 384 microtiter plate. […] The wells were then analyzed by FCCS, Ki values were determined, and compared by a scatter plot to the IC50 values from the previous functional assays in yeast (Figure 6). […]
FCCS measurements were conducted in 384-well glass-bottom plates (cat. no PS96B-G175, SWISSCI, Switzerland) using an Insight plate reader (Evotec Technologies, Germany) fitted with a U-Apo300 40x water immersion lens, NA 1.15 (Olympus, Japan). […] Fluorescence fluctuations were recorded for 8 s with 12 repetitions and analyzed afterward using FCS+plus Analyze 1.1P (Evotec technologies, Version 1.2.5g). […] All KD and IC50 values, as well as kinetic parameters, were determined from three independently repeated experiments. […]

T1 sequence (O77389 whole entry, the tested form may be a part): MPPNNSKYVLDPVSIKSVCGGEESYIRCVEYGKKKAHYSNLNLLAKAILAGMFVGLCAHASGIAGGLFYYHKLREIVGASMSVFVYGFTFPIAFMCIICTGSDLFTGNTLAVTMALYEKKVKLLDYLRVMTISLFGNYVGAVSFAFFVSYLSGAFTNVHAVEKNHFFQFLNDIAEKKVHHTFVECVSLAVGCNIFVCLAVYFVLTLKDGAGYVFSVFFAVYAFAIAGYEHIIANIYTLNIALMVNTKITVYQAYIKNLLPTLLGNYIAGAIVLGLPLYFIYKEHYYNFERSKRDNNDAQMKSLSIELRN

With `O=C1CC(O)(C(F)(F)C(F)(F)F)Oc2ccccc21` (stereo not drawn) [MMV000972, reference compound], the EC50 in test [1] was 1700 nM. In addition, the IC50 in test [2] is 170 nM.
`COc1ccc2c(c1)OC(O)(C(F)(F)C(F)(F)F)CC2=O` (stereo not drawn) [MMV007839]: the IC50 is 21000 nM in test [3] and 170 nM in test [2]. Besides, the EC50 in test [4] was 35000 nM; in test [1] it was 140 nM.
`O=C(/C=C(\O)C(F)(F)C(F)(F)F)c1ccc(C(=O)/C=C(\O)C(F)(F)C(F)(F)F)cc1` [BH454]: the “activity in functional yeast lactate transport assay” value in test [2] (validated before) is recorded as “little activity; also recorded: not very effective”. The Ki in test [5] was below 100 nM. The “Ki (affinity) from FCCS competition screen” value in test [5] (4 nM PfFNT-GFP, 80 nM BH296-DY647, 1 h room temperature) is on record as “double-digit nanomolar range”.

Values taken from paper PMC8399565, “Fluorescence Cross-Correlation Spectroscopy Yields True Affinity and Binding Kinetics of Plasmodium Lactate Transport Inhibitors” (Pharmaceuticals, 2021).
